Experimental findings from US4414219A, “Antidepressant (α-phenyl-2-tolyl)azacycloalkanols and derivatives thereof” (American Hoechst Corporation, priority 1980, dated 1983) are described below.

Common to all, as to format: in vivo
Assay [1] relates to tetrabenazine-induced ptosis. Kind of assay: inhibition of tetrabenazine-induced ptosis in mice (antidepressant assay). The following applies: Mus musculus, ip, read-out: ED50 (50% inhibition from the ptosis of tetrabenazine-induced depression). From the text: Thus, for instance, the intraperitoneal dosages at which the following compounds (ED50) effect a 50% inhibition from the ptosis of tetrabenazine-induced depression in mice are:
It is to be noted and stressed at this point that the substitution of a benzyl in the 2- or ortho position of the phenyl ring, in the compounds of the invention, is critical to biological especially antidepressant, activity. Where the benzyl is substituted in the 3- or meta position or the 4- or para position, the corresponding compound is relatively ineffective as compared to the 2-substituted compounds of the invention. In this regard, reference is made to the following Table II which illustrates such criticality in the form of intraperitoneal dosages at which a series (A. B. and C.) of 2-, 3- and 4-substituted compounds effect a 50% inhibition from the ptosis of tetrabenazine-induced depression in mice: […]

The subject of assay [2] is supra maximal electro shock (SES). In words: protection from supra maximal electro shock (SES), anticonvulsant. Here is the method:
Compounds of the present invention are further useful as anticonvulsant agents for mammals, as determined by the method of Woodbury, L. A. and Davenport, V. D., in Arch, Int. Pharmacodynam, Vol. 92, (1952) at pages 97-107. For example, the intraperitoneal dose of 17.6 mg/kg of body weight of 1-methyl-4-[-(4,fluorophenyl)-2-tolyl]-1,2,3,6-tetrahydropyridine hydrobromide produces an 83% protection from the effect of supra maximal electro shock (SES). Intraperitoneal doses of other representative compounds of the invention and their ability to protect from the effect of SES is shown below in Table IV.

Assay [3] deals with 2-phenyl-1,4-quinone induced writhing. Kind of assay: 2-phenyl-1,4-quinone induced writhing assay in mice (analgesia). The following applies: for inhibition of writhing: 60 mg/kg p.o., comparison. Here is the method:
Compounds of the invention are also useful as analgesic agents due to their ability to alleviate pain in mammals. […] Exptl. Biol. Med., 95, 729 (1957)]. Thus, for example, a 50% inhibition in writhing is effected by the oral administration of 28.4 mg/kg of body weight of 4-acetoxy-1-methyl-4-(α-phenyl)-2-tolyl)piperidine hydrochloride. Other representative compounds of the invention and their respective ability to inhibit said writhing is shown below in Table III.
(An intraperitoneal irritant provokes the stretching counted in writhing tests.)

For a further assay, the system named is toxicity of amphetamine. In words: Amphetamine Aggregation Toxicity Reversal Assay (tranquilizer). The following applies: 20 mg/kg oral; against 15 mg/kg intraperitoneal amphetamine sulfate; aggregated mice, survival up to 3 hours. From the text: Compounds of the invention are still further useful as tranquilizers due to their ability to reverse toxicity of amphetamine as measured in the Amphetamine Aggregation Toxicity Reversal Assay [Chance, M. R. A., J. Pharmacol. Exper. Therap. 87, pp. 214-219 (1946) and Proctor, C. D., Putts, J. T., Lundy, R. O., and Greenfield, E. J., Arch. Int. Pharmacodynam. 163, (1), pp. 79-86 (1966)]. In our assay "aggregated mice" mean 5 mice/group placed in such a manner as to yield 20 cm^2 of floor space per mouse. Animals are aggregated immediately after injection with amphetamine sulfate and then checked for survival up to 3 hours. For example, under these conditions an oral dosage of 20 mg/kg of body weight of 1-[3-(4-fluorobenzoyl)propyl]-4-(α-phenyl-2-tolyl)piperidine effects a 60% protection against the intraperitoneal dose of 15 mg/kg of amphetamine sulfate.

Assay [4] has as its system tetrabenazine-induced ptosis. In words: inhibition of tetrabenazine-induced ptosis in mice (antidepressant assay). The following applies: 25 mg/kg intraperitoneal.
The mark [5] stands for this setting: intraperitoneal, mice, Table II (2-, 3- and 4-substituted series A, B, C).

Where a name gives a salt, the structure may show the parent alone. Read-outs that look alike come from different tables or passages of the source. Some results are limits rather than exact numbers.

The ED50 is the midpoint of the dose-response relation. `CN1CCC(O)(c2ccccc2Cc2ccc(F)cc2)CC1` [1-methyl-4-[α-(4-fluorophenyl)-2-tolyl]-4-piperidinol]: in assay [1], the ED50 was 8.2 mg/kg. Further, the “% SES Protection” value in assay [2] (23.3 mg/kg intraperitoneal) was found to be 50%. In the case of `CN1CCC(c2cccc(Cc3ccccc3)c2)CC1.O=C(O)C(=O)O` [1-methyl-4-(α-phenyl-3-tolyl)piperidine oxalate, reference compound], the ED50 in assay [1] (setting [5]) is above 20 mg/kg. Take `Br.COc1ccc(Cc2ccccc2C2=CCN(C)CC2)cc1` [1-methyl-4-[α-(4-methoxyphenyl)-2-tolyl]-1,2,3,6-tetrahydropyridine hydrobromide]: in assay [2] (25.6 mg/kg intraperitoneal), the “% SES Protection” value amounted to 50%.

On to `CN1CCC(OC(=O)c2ccccc2)(c2ccccc2Cc2ccccc2)CC1.Cl` [4-benzoyloxy-1-methyl-4-(α-phenyl-2-tolyl)piperidine hydrochloride], for which the “% Inhibition in Writhing” value in assay [3] (12.8 mg/kg sc, mice) turned out to be 50%. Take `Cl.c1ccc(Cc2ccccc2C2CCNCC2)cc1` [4-(α-phenyl-2-tolyl)piperidine hydrochloride]: in assay [1] (setting [5]), the ED50 was 1.7 mg/kg. In the case of `CN1CC=C(c2ccc(Cc3ccccc3)cc2)CC1` [1-methyl-4-(α-phenyl-4-tolyl)-1,2,3,6-tetrahydropyridine, reference compound], the ED50 in assay [1] was above 50 mg/kg. On the same count and under the same terms, the value for `CN1CC=C(c2cccc(Cc3ccccc3)c2)CC1` [1-methyl-4-(α-phenyl-3-tolyl)-1,2,3,6-tetrahydropyridine, reference compound] was above 50 mg/kg. For `CN1CCC(c2ccc(Cc3ccccc3)cc2)CC1.O=C(O)C(=O)O` [1-methyl-4-(α-phenyl-4-tolyl)piperidine oxalate, reference compound], in assay [1] (setting [5]), the ED50 is above 20 mg/kg. For the compound `Cl.OC1(c2ccccc2Cc2ccccc2)CCNCC1` [4-(α-phenyl-2-tolyl)-4-piperidinol hydrochloride], the ED50 in assay [1] (intraperitoneal, mice, Table I) worked out at 5.4 mg/kg. For the compound `O=C(CCCN1CCC(c2ccccc2Cc2ccccc2)CC1)c1ccc(F)cc1` [1-[3-(4-fluorobenzoyl)propyl]-4-(α-phenyl-2-tolyl)piperidine], the “protection against amphetamine sulfate toxicity” value in the assay with toxicity of amphetamine stood at 60%. On to `ON1CCC(c2ccccc2Cc2ccccc2)CC1` [1-hydroxy-4-(α-phenyl-2-tolyl)piperidine], for which the 50% effective dose (ED50) in assay [1] (intraperitoneal, mice, Table I) turned out to be 3 mg/kg.

Take `CN1CCC(c2ccccc2Cc2ccccc2)CC1.Cl` [1-methyl-4-(α-phenyl-2-tolyl)piperidine hydrochloride]: the ED50 in assay [1] (setting [5]) was found to be 2.5 mg/kg. Also, the “% SES Protection” value in assay [2] (50 mg/kg intraperitoneal) came out at 83%. The “% Inhibition in Writhing” value in assay [3] (61.7 mg/kg po, mice) is recorded as 50%. On to `CC(=O)OC1(c2ccccc2Cc2ccccc2)CCN(C)CC1.Cl` [4-acetoxy-1-methyl-4-(α-phenyl-2-tolyl)piperidine hydrochloride], for which the “inhibition from the ptosis of tetrabenazine-induced depression” value in assay [4] amounted to 40%. This compound also returned an inhibition in writhing in assay [3] (28.4 mg/kg oral, mice) of 50%. For the compound `Br.c1ccc(CCN2CCC(c3ccccc3Cc3ccccc3)CC2)cc1` [1-phenethyl-4-(α-phenyl-2-tolyl)piperidine hydrobromide], the “% SES Protection” value in assay [2] (37.5 mg/kg intraperitoneal) was found to be 50%. Consider `Cl.c1ccc(Cc2cccc(C3CCNCC3)c2)cc1` [4-(α-phenyl-3-tolyl)piperidine hydrochloride, reference compound], for which the 50% effective dose (ED50) in assay [1] (setting [5]) is above 20 mg/kg. `CCC(=O)O[C@](Cc1ccccc1)(c1ccccc1)[C@H](C)CN(C)C` [propoxyphene hydrochloride, reference compound] displayed an inhibition of writhing in assay [3] of 50%. For the compound `CN1CCC(O)(c2ccccc2Cc2ccccc2)CC1` [1-methyl-4-(α-phenyl-2-tolyl)-4-piperidinol], the ED50 in assay [1] is 8 mg/kg. Also, the “% SES Protection” value in assay [2] (36 mg/kg intraperitoneal) is 50%. In addition, the “% Inhibition in Writhing” value in assay [3] (50.0 mg/kg po, mice) is on record as 41%. Take `CC(=O)Oc1ccccc1C(=O)O` [aspirin, reference compound]: the inhibition of writhing in assay [3] was 34%. With `Cl.OC1(c2ccccc2Cc2ccccc2)CCN(Cc2ccccc2)C1` (stereo not drawn) [1-benzyl-3-(α-phenyl-2-tolyl)-3-pyrrolidinol hydrochloride], the “% SES Protection” value in assay [2] (50 mg/kg intraperitoneal) is recorded as 83%. On to `C1=C(c2ccccc2Cc2ccccc2)CCNC1` [4-(α-phenyl-2-tolyl)-1,2,3,6-tetrahydropyridine], for which the ED50 in assay [1] turned out to be 2.1 mg/kg. Moreover, in assay [3] (7.8 mg/kg sc, mice), the “% Inhibition in Writhing” value is on record as 50%. Turning to `Br.CN1CC=C(c2ccccc2Cc2ccc(F)cc2)CC1` [4-[α-(4-fluorophenyl)-2-tolyl]-1-methyl-1,2,3,6-tetrahydropyridine hydrobromide], the median effective dose (ED50) in assay [1] was found to be 8 mg/kg. Moreover, in assay [2] (17.6 mg/kg intraperitoneal), the “protection from the effect of supra maximal electro shock (SES)” value was found to be 83%. Consider `CCC(=O)OC1(c2ccccc2Cc2ccccc2)CCN(C)CC1.Cl` [1-methyl-4-(α-phenyl-2-tolyl)-4-propionyloxypiperidine hydrochloride], for which the “% SES Protection” value in assay [2] (50 mg/kg intraperitoneal) was determined as 50%. For the same compound, the “% Inhibition in Writhing” value in assay [3] (8.9 mg/kg sc, mice) amounted to 50%.

For the compound `CN1CC=C(c2ccccc2Cc2ccccc2)CC1` [1-methyl-4-(α-phenyl-2-tolyl)-1,2,3,6-tetrahydropyridine], the ED50 in assay [1] is 8.8 mg/kg. Take `Cl.c1ccc(Cc2ccc(C3CCNCC3)cc2)cc1` [4-(α-phenyl-4-tolyl)piperidine hydrochloride, reference compound]: the ED50 in assay [1] (setting [5]) is above 20 mg/kg.
